Laboratory results taken from patent US5591714A, “Derivatives of A82846” (priority 1994, dated 1997).

What was measured:
Assay in all cases: In vivo activity, experimentally infected mice (ED50)
Streptococcus pyogenes = Streptococcus pyogenes infection; doses administered subcutaneously to mice 1 and 4 hours postinfection
Streptococcus pneumoniae = Streptococcus pneumoniae infection; doses administered subcutaneously to mice 1 and 4 hours postinfection
Staphylococcus aureus = Staphylococcus aureus infection; doses administered subcutaneously to mice 1 and 4 hours postinfection

Row | SMILES | ED50 (Streptococcus pyogenes) [mg/kg/2] | ED50 (Streptococcus pneumoniae) [mg/kg/2] | ED50 (Staphylococcus aureus) [mg/kg/2]
1 | CCCCCCCCN(C)[C@H](CC(C)C)C(=O)N[C@H]1C(=O)N[C@@H](CC(N)=O)C(=O)N[C@H]2C(=O)N[C@H]3C(=O)N[C@H](C(=O)N[C@H](C(=O)O)c4cc(O)cc(O)c4-c4cc3ccc4O)[C@H](O[C@H]3C[C@](C)(N)[C@@H](O)[C@H](C)O3)c3ccc(cc3)Oc3cc2cc(c3O[C@@H]2O[C@H](CO)[C@@H](O)[C@H](O)[C@H]2O[C@H]2C[C@](C)(N)[C@@H](O)[C@H](C)O2)Oc2ccc(cc2Cl)[C@H]1O [Compound 2] | 0.79 | 1.25 | > 5.0
2 | CCCCCN[C@@]1(C)C[C@H](O[C@H]2[C@H](Oc3c4cc5cc3Oc3ccc(cc3Cl)[C@@H](O)[C@@H](NC(=O)[C@@H](CC(C)C)NC)C(=O)N[C@@H](CC(N)=O)C(=O)N[C@H]5C(=O)N[C@H]3C(=O)N[C@H](C(=O)N[C@H](C(=O)O)c5cc(O)cc(O)c5-c5cc3ccc5O)[C@H](O[C@H]3C[C@](C)(N)[C@@H](O)[C@H](C)O3)c3ccc(cc3)O4)O[C@H](CO)[C@@H](O)[C@@H]2O)O[C@@H](C)[C@@H]1O [Compound 5] | 0.17 | 0.1 | 0.92
3 | CCCCCN[C@@]1(C)C[C@H](O[C@H]2[C@H](Oc3c4cc5cc3Oc3ccc(cc3Cl)[C@@H](O)[C@@H](NC(=O)[C@@H](CC(C)C)N(C)CCCCC)C(=O)N[C@@H](CC(N)=O)C(=O)N[C@H]5C(=O)N[C@H]3C(=O)N[C@H](C(=O)N[C@H](C(=O)O)c5cc(O)cc(O)c5-c5cc3ccc5O)[C@H](O[C@H]3C[C@](C)(NCCCCC)[C@@H](O)[C@H](C)O3)c3ccc(cc3)O4)O[C@H](CO)[C@@H](O)[C@@H]2O)O[C@@H](C)[C@@H]1O [Compound 8] | 2.69 | > 4.0 | > 4.0
4 | CCCCCCCCCCN[C@@]1(C)C[C@H](O[C@H]2[C@H](Oc3c4cc5cc3Oc3ccc(cc3Cl)[C@@H](O)[C@@H](NC(=O)[C@@H](CC(C)C)NC)C(=O)N[C@@H](CC(N)=O)C(=O)N[C@H]5C(=O)N[C@H]3C(=O)N[C@H](C(=O)N[C@H](C(=O)O)c5cc(O)cc(O)c5-c5cc3ccc5O)[C@H](O[C@H]3C[C@](C)(N)[C@@H](O)[C@H](C)O3)c3ccc(cc3)O4)O[C@H](CO)[C@@H](O)[C@@H]2O)O[C@@H](C)[C@@H]1O [Compound 9] | 0.68 |  | 
5 | CN[C@H](CC(C)C)C(=O)N[C@H]1C(=O)N[C@@H](CC(N)=O)C(=O)N[C@H]2C(=O)N[C@H]3C(=O)N[C@H](C(=O)N[C@H](C(=O)O)c4cc(O)cc(O)c4-c4cc3ccc4O)[C@H](O[C@H]3C[C@](C)(N)[C@@H](O)[C@H](C)O3)c3ccc(cc3)Oc3cc2cc(c3O[C@@H]2O[C@H](CO)[C@@H](O)[C@H](O)[C@H]2O[C@H]2C[C@](C)(NCc3ccc(Cl)cc3)[C@@H](O)[C@H](C)O2)Oc2ccc(cc2Cl)[C@H]1O [Compound 20] | 0.15 | 0.23 | > 2.0
6 | CN[C@H](CC(C)C)C(=O)N[C@H]1C(=O)N[C@@H](CC(N)=O)C(=O)N[C@H]2C(=O)N[C@H]3C(=O)N[C@H](C(=O)N[C@H](C(=O)O)c4cc(O)cc(O)c4-c4cc3ccc4O)[C@H](O[C@H]3C[C@](C)(NCCc4ccccc4)[C@@H](O)[C@H](C)O3)c3ccc(cc3)Oc3cc2cc(c3O[C@@H]2O[C@H](CO)[C@@H](O)[C@H](O)[C@H]2O[C@H]2C[C@](C)(N)[C@@H](O)[C@H](C)O2)Oc2ccc(cc2Cl)[C@H]1O [Compound 25] | 0.50 | 0.76 | > 1.0
7 | CN[C@H](CC(C)C)C(=O)N[C@H]1C(=O)N[C@@H](CC(N)=O)C(=O)N[C@H]2C(=O)N[C@H]3C(=O)N[C@H](C(=O)N[C@H](C(=O)O)c4cc(O)cc(O)c4-c4cc3ccc4O)[C@H](O[C@H]3C[C@](C)(N)[C@@H](O)[C@H](C)O3)c3ccc(cc3)Oc3cc2cc(c3O[C@@H]2O[C@H](CO)[C@@H](O)[C@H](O)[C@H]2O[C@H]2C[C@](C)(NCC(c3ccccc3)c3ccccc3)[C@@H](O)[C@H](C)O2)Oc2ccc(cc2Cl)[C@H]1O [Compound 26] | 0.48 | 0.47 | > 3.0
8 | CCCCCN[C@@]1(C)C[C@H](O[C@H]2[C@H](Oc3c4cc5cc3Oc3ccc(cc3Cl)[C@@H](O[C@H]3C[C@](C)(N)[C@@H](O)[C@H](C)O3)[C@@H]3NC(=O)[C@H](NC(=O)[C@@H]5NC(=O)[C@H](CC(N)=O)NC(=O)[C@H](NC(=O)[C@@H](CC(C)C)N(C)CCCCC)[C@H](O)c5ccc(c(Cl)c5)O4)c4ccc(O)c(c4)-c4c(O)cc(O)cc4[C@@H](C(=O)O)NC3=O)O[C@H](CO)[C@@H](O)[C@@H]2O)O[C@@H](C)[C@@H]1O [Compound 36] | 0.38 | 0.29 | 1.0
9 | CCCCCN[C@@]1(C)C[C@H](O[C@H]2[C@H](Oc3c4cc5cc3Oc3ccc(cc3Cl)[C@@H](O[C@H]3C[C@](C)(NCCCCC)[C@@H](O)[C@H](C)O3)[C@@H]3NC(=O)[C@H](NC(=O)[C@@H]5NC(=O)[C@H](CC(N)=O)NC(=O)[C@H](NC(=O)[C@@H](CC(C)C)N(C)CCCCC)[C@H](O)c5ccc(c(Cl)c5)O4)c4ccc(O)c(c4)-c4c(O)cc(O)cc4[C@@H](C(=O)O)NC3=O)O[C@H](CO)[C@@H](O)[C@@H]2O)O[C@@H](C)[C@@H]1O [Compound 37] | 1.09 | 0.88 | > 5.0
10 | CCCCCCCCN(C)[C@H](CC(C)C)C(=O)N[C@H]1C(=O)N[C@@H](CC(N)=O)C(=O)N[C@H]2C(=O)N[C@H]3C(=O)N[C@H](C(=O)N[C@H](C(=O)O)c4cc(O)cc(O)c4-c4cc3ccc4O)[C@H](O[C@H]3C[C@](C)(N)[C@@H](O)[C@H](C)O3)c3ccc(c(Cl)c3)Oc3cc2cc(c3O[C@@H]2O[C@H](CO)[C@@H](O)[C@H](O)[C@H]2O[C@H]2C[C@](C)(N)[C@@H](O)[C@H](C)O2)Oc2ccc(cc2Cl)[C@H]1O [Compound 39] | 0.18 | 0.34 | 1.22
11 | CCCCCCCCN[C@@]1(C)C[C@H](O[C@H]2[C@H](Oc3c4cc5cc3Oc3ccc(cc3Cl)[C@@H](O[C@H]3C[C@](C)(NCCCCCCCC)[C@@H](O)[C@H](C)O3)[C@@H]3NC(=O)[C@H](NC(=O)[C@@H]5NC(=O)[C@H](CC(N)=O)NC(=O)[C@H](NC(=O)[C@@H](CC(C)C)NC)[C@H](O)c5ccc(c(Cl)c5)O4)c4ccc(O)c(c4)-c4c(O)cc(O)cc4[C@@H](C(=O)O)NC3=O)O[C@H](CO)[C@@H](O)[C@@H]2O)O[C@@H](C)[C@@H]1O [Compound 41] | 0.18 | 0.32 | 1.22
12 | CN[C@H](CC(C)C)C(=O)N[C@H]1C(=O)N[C@@H](CC(N)=O)C(=O)N[C@H]2C(=O)N[C@H]3C(=O)N[C@H](C(=O)N[C@H](C(=O)O)c4cc(O)cc(O)c4-c4cc3ccc4O)[C@H](O[C@H]3C[C@](C)(NCCc4ccccc4)[C@@H](O)[C@H](C)O3)c3ccc(c(Cl)c3)Oc3cc2cc(c3O[C@@H]2O[C@H](CO)[C@@H](O)[C@H](O)[C@H]2O[C@H]2C[C@](C)(N)[C@@H](O)[C@H](C)O2)Oc2ccc(cc2Cl)[C@H]1O [Compound 44] | 0.125 | 0.2 | 0.3
13 | CNC(CC(C)C)C(=O)NC1C(=O)NC(CC(N)=O)C(=O)NC2C(=O)NC3C(=O)NC(C(=O)NC(C(=O)O)c4cc(O)cc(O)c4-c4cc3ccc4O)C(OC3CC(C)(NCC(c4ccccc4)c4ccccc4)C(O)C(C)O3)c3ccc(c(Cl)c3)Oc3cc2cc(c3OC2OC(CO)C(O)C(O)C2OC2CC(C)(N)C(O)C(C)O2)Oc2ccc(cc2Cl)C1O (stereo not shown) [Compound 46] | 0.14 | 0.22 | 0.75
14 | CNC(CC(C)C)C(=O)NC1C(=O)NC(CC(N)=O)C(=O)NC2C(=O)NC3C(=O)NC(C(=O)NC(C(=O)O)c4cc(O)cc(O)c4-c4cc3ccc4O)C(OC3CC(C)(NCCCc4ccccc4)C(O)C(C)O3)c3ccc(c(Cl)c3)Oc3cc2cc(c3OC2OC(CO)C(O)C(O)C2OC2CC(C)(NCCCc3ccccc3)C(O)C(C)O2)Oc2ccc(cc2Cl)C1O (stereo not shown) [Compound 50] | 0.6 | 1.02 | > 5.0
15 | CC(C)CC(C(=O)NC1C(=O)NC(CC(N)=O)C(=O)NC2C(=O)NC3C(=O)NC(C(=O)NC(C(=O)O)c4cc(O)cc(O)c4-c4cc3ccc4O)C(OC3CC(C)(N)C(O)C(C)O3)c3ccc(c(Cl)c3)Oc3cc2cc(c3OC2OC(CO)C(O)C(O)C2OC2CC(C)(N)C(O)C(C)O2)Oc2ccc(cc2Cl)C1O)N(C)Cc1ccccc1 (stereo not shown) [Compound 52] | 0.5 | 0.75 | 
16 | CNC(CC(C)C)C(=O)NC1C(=O)NC(CC(N)=O)C(=O)NC2C(=O)NC3C(=O)NC(C(=O)NC(C(=O)O)c4cc(O)cc(O)c4-c4cc3ccc4O)C(OC3CC(C)(NCc4ccccc4)C(O)C(C)O3)c3ccc(c(Cl)c3)Oc3cc2cc(c3OC2OC(CO)C(O)C(O)C2OC2CC(C)(NCc3ccccc3)C(O)C(C)O2)Oc2ccc(cc2Cl)C1O (stereo not shown) [Compound 53] | 0.2 | 0.18 | 1.25
17 | CCN(CC)c1ccc(CNC2(C)CC(OC3c4ccc(c(Cl)c4)Oc4cc5cc(c4OC4OC(CO)C(O)C(O)C4OC4CC(C)(NCc6ccc(N(CC)CC)cc6)C(O)C(C)O4)Oc4ccc(cc4Cl)C(O)C(NC(=O)C(CC(C)C)NC)C(=O)NC(CC(N)=O)C(=O)NC5C(=O)NC4C(=O)NC3C(=O)NC(C(=O)O)c3cc(O)cc(O)c3-c3cc4ccc3O)OC(C)C2O)cc1 (stereo not shown) [Compound 57] | < 0.62 |  | 
18 | CNC(CC(C)C)C(=O)NC1C(=O)NC(CC(N)=O)C(=O)NC2C(=O)NC3C(=O)NC(C(=O)NC(C(=O)O)c4cc(O)cc(O)c4-c4cc3ccc4O)C(OC3CC(C)(NCc4ccc(Br)cc4)C(O)C(C)O3)c3ccc(c(Cl)c3)Oc3cc2cc(c3OC2OC(CO)C(O)C(O)C2OC2CC(C)(NCc3ccc(Br)cc3)C(O)C(C)O2)Oc2ccc(cc2Cl)C1O (stereo not shown) [Compound 59] | 0.25 | < 0.31 | 3.16
